This is an account of results in patent US12679837B2, “Aminopyrimidine compound as CDK2/4/6 triple inhibitor” (CISEN PHARMACEUTICAL CO., LTD, priority 2019, dated 2026).

Structures are written as SMILES.

One assay deals with T1, CDK6/CyclinD1 (Homo sapiens, UniProt Q00534).
T1 construct: purchased Carna
The assay is described as follows: CDK6/CyclinD1 kinase activity test (LANCE Ultra TR-FRET). The following applies: 250 μM ATP, 25° C., 120 minutes; read-out: Enzyme activity data (IC50) CDK6/cyclinD1. Type of assay: biochemical. Here is the method: Experimental materials: CDK6/CyclinD1 kinase was purchased from Carna, reaction substrate LANCE Ultra ULight™-4E-BP-1 (Thr37146) Peptide and EU-ANTI-P-4EBP1 (THR37/46) were purchased from PerkinElmer. Nivo Multilabel Analyzer (PerkinElmer).
(§1) Experimental method: preparation of kinase buffer: The components of the buffer include: 50 mM of hydroxyethylpiperazine […] solution with pH 7.5, 1 mM of EDTA, 10 mM of magnesium chloride, 0.01% lauryl polyoxyethylene ether (Brij-35), 2 mM of enzyme dithiothreitol, kinase buffer dilution enzyme, substrate LANCE Ultra ULight™-4E-BP-1 (Thr37146) Peptide, adenosine triphosphate and inhibitor. […] The reaction system was continued at 25° C. for 120 minutes. After the reaction was complete, a mixture of 5 μL of EDTA and 2× LANCE™ Detection Buffer (1:1) was added to each well, and reacted at 25° C. for 5 minutes, after the reaction was complete, 5 μL of LANCE Ultra Eu-anti-P-4E-BP1(Thr37MS) (4 nM) was added to each well, and reacted at 25° C. for 60 minutes, the reaction signal was detected by Nivo instrument according to the principle of time-resolved fluorescence resonance energy transfer.
(§2) Table 1 provides the enzymatic inhibitory activities of the compounds of the present invention on CDK2/CyclinA2, CDK2/CyclinE1, CDK4/CyclinD1, CDK6/CyclinD1, CDK9/CyclinT1.
On the technique in general: In TR-FRET formats the signal depends on donor and acceptor labels being close together.

Another assay deals with T2, CDK4/CyclinD1 (Homo sapiens, UniProt P11802).
T2 construct: purchased Invitrogen
The assay is described as follows: CDK4/CyclinD1 kinase activity test (LANCE Ultra TR-FRET). Type of assay: biochemical. The following applies: 350 μM ATP, 25° C., 120 minutes; read-out: Enzyme activity data (IC50) CDK4/cyclinD1. Here is the method:
Experimental materials: CDK4/CyclinD1 kinase was purchased from Invitrogen, reaction substrate LANCE Ultra ULight™-4E-BP-1 (Thr37146) Peptide and EU-ANTI-P-4EBP1 (THR37/46) were purchased from PerkinElmer. Nivo Multilabel Analyzer (PerkinElmer).
as §1, §2

A further assay concerns the target T3, CDK2/CyclinA2 (Homo sapiens, UniProt P24941).
T3 construct: purchased Promega
As to the kind of experiment: CDK2/CyclinA2 kinase activity test (ADP-Glo). Type of assay: biochemical. As to conditions: 50 μM ATP, 25° C., 60 minutes; read-out: Enzyme activity data (IC50) CDK2/cyclinA. Here is the method: Experimental materials: CDK2/CyclinA2 kinase detection kit was purchased from Promega. Nivo Multilabel Analyzer (PerkinElmer).
Experimental method: Kinase buffer dilution enzyme in the kit, substrate, adenosine triphosphate and inhibitor were used. The compounds to be tested were diluted 5-fold to the 8th concentration with a row gun, that is, from 50 μM to 0.65 nM, the concentration of DMSO was 5%, and a double-replicate well experiment was set up. 1 μL of each concentration gradient of inhibitor, 2 μL of CDK2/CyclinA2 enzyme (1.6 ng), and 2 μL of a mixture of substrate and ATP (50 μM of adenosine triphosphate, 0.1 μg/μL of substrate) were added to the microplate, and at this time, the final concentration gradient of compound was diluted from 10 μM to 0.13 nM. The reaction system was placed at 25° C. and reacted for 60 minutes. After the reaction was complete, 5 μL of ADP-Glo reagent was added to each well, and the reaction was continued at 25° C. for 40 minutes. At the end of the reaction, 10 μL of kinase detection reagent was added to each well. After the reaction was continued at 25° C. for 30 minutes, the chemiluminescence was read by a multi-label analyzer with an integration time of 0.5 seconds.
Using the equation (Sample−Min)/(Max−Min)×100% to convert the original data into inhibition rate, the IC50 value can be obtained by curve fitting with four parameters (obtained by the mode of log(inhibitor) vs. response—Variable slope in GraphPad Prism). Table 1 provides the enzymatic inhibitory activities of the compounds of the present invention on CDK2/CyclinA2, CDK2/CyclinE1, CDK4/CyclinD1, CDK6/CyclinD1, CDK9/CyclinT1.

For another assay, the system named is HCT116 cells. The assay is described as follows: HCT116 cell activity test (CellTiter-Glo). As to conditions: Homo sapiens, HCT-116, 96 h, 4 days, read-out: Antiproliferative activity (IC50) HCT 116. Format: cell-based. Here is the method:
Experimental materials: McCoy' 5a medium, fetal bovine serum, and penicillin/streptomycin antibiotics were purchased from Vicente. CellTiter-Glo (chemiluminescence detection reagent for cell viability) reagent was purchased from Promega. The HCT116 cell line was purchased from Cobioer Biosciences Co., Ltd. Nivo Multilabel Analyzer (PerkinElmer).
Experimental method: HCT116 cells were seeded in a white 96-well plate, 80 μL of cell suspension per well, which contained 1000 HCT116 cells. The cell plate was incubated overnight in a carbon dioxide incubator. The compounds to be tested were diluted 5-fold to the 9th concentration with a row gun, that is, from 2 mM to 5.12 nM, and a double-replicate well experiment was set up. 78 μL of medium was added to the middle plate, and then transferred 2 μL per well of the gradient diluted compound to the middle plate according to the corresponding position, mixed well and transferred 20 μL per well to the cell plate. […] Another cell plate was prepared, and the signal value was read as the maximum value (Max value in the equation below) on the day of drug addition to participate in data analysis. 25 μL of chemiluminescence detection reagent for cell viability was added to each well of the cell plate, and incubated at room temperature for 10 minutes to stabilize the luminescence signal. A multi-label analyzer was used for reading. […]

For the next assay, the system named is HCC1806 cells. As to the kind of experiment: HCC1806 cell activity test (CyQUANT). Type of assay: cell-based. As to conditions: Homo sapiens, 168 h, 7 days, read-out: Antiproliferative activity (IC50) HCC1806. Here is the method: Experimental materials: RPMI-1640 medium, fetal bovine serum, penicillin/streptomycin antibiotics were purchased from Vicente. CyQUANT Cell Proliferation Assays (Cell proliferation assay kit) reagents were purchased from ThermoFisher. The HCC1806 cell line was purchased from Cobioer Biosciences Co., Ltd. Nivo Multilabel Analyzer (PerkinElmer).
Experimental method: HCC1806 cells were seeded in a white 96-well plate, 80 μL of cell suspension per well, which contained 3000 HCC1806 cells. The cell plate was incubated overnight in a carbon dioxide incubator. The compounds to be tested were diluted 5-fold to the 9th concentration with a row gun, that is, from 10 mM to 25.6 nM, and a double-replicate well experiment was set up. 78 μL of medium was added to the middle plate, and then transferred 2 μL per well of the gradient diluted compound to the middle plate according to the corresponding position, mixed well and transferred 20 μL per well to the cell plate. […] After reaching the incubation time, the cell supernatant was removed, and the cell plate was placed in a −80° C. refrigerator for 1 hour, after which 100 μL of Cyquant reagent was added to each well, and a multi-label analyzer was used for reading. Another cell plate was prepared, and the signal value was read as the maximum value (Max value in the equation below) on the day of drug addition to participate in data analysis. […]

The target in the next assay is T4, CDK9/CyclinT1 (Homo sapiens, UniProt P50750).
T4 construct: purchased Carna
The assay is described as follows: CDK9/CyclinT1 kinase activity assay (ADP-Glo). Type of assay: biochemical. As to conditions: 100 μM ATP, 25° C., 60 minutes; read-out: Enzyme activity data (IC50) CDK9/CyclinT1. Here is the method: Experimental materials: CDK9/CyclinT1 kinase was purchased from Carna, the ADP-Glo detection kit was purchased from Promega, the PKDTide substrate and kinase reaction buffer were purchased from Signalchem. Nivo Multilabel Analyzer (PerkinElmer).
Experimental method: Kinase buffer dilution enzyme in the kit, substrate, adenosine triphosphate and inhibitor were used. […] The reaction system was placed at 25° C. and reacted for 60 minutes. After the reaction was complete, 5 μL of ADP-Glo reagent was added to each well, and the reaction was continued at 25° C. for 40 minutes. At the end of the reaction, 10 μL of kinase detection reagent was added to each well. After the reaction was continued at 25° C. for 30 minutes, the chemiluminescence was read by a multi-label analyzer with an integration time of 0.5 seconds.
as §2

For the next assay, the system named is MDA-MB-468 cells. As to the kind of experiment: MDA-MB-468 cell activity test (CellTiter-Glo). Type of assay: cell-based. As to conditions: Homo sapiens, 168 h; MDA-MB-468 cells (Rb-negative), 7 days; read-out: Antiproliferative activity (IC50) MDA-MB-468. Here is the method:
Experimental materials: L15 medium, fetal bovine serum, penicillin/streptomycin antibiotics were purchased from Vicente. CellTiter-Glo (chemiluminescence detection reagent for cell viability) reagent was purchased from Promega. The MDA-MB-468 cell line was purchased from Cobioer Biosciences Co., Ltd. Nivo Multilabel Analyzer (PerkinElmer).
Experimental method: MDA-MB-468 cells were seeded in a white 96-well plate, 80 μL of cell suspension per well, which contained 1000 MDA-MB-468 cells. The cell plate was incubated overnight in a carbon dioxide incubator. The compounds to be tested were diluted 5-fold to the 9th concentration with a row gun, that is, from 10 mM to 25.6 nM, and a double-replicate well experiment was set up. 78 μL of medium was added to the middle plate, and then transferred 2 μL per well of the gradient diluted compound to the middle plate according to the corresponding position, mixed well and transferred 20 μL per well to the cell plate. The concentration of compound transferred to the cell plate ranged from 50 μM to 0.128 nM. The cell plate was incubated in a carbon dioxide incubator for 7 days. Another cell plate was prepared, and the signal value was read as the maximum value (Max value in the equation below) on the day of drug addition to participate in data analysis. 25 μL of chemiluminescence detection reagent for cell viability was added to each well of the cell plate, and incubated at room temperature for 10 minutes to stabilize the luminescence signal. A multi-label analyzer was used for reading.
Data analysis: Using the equation (Sample−Min)/(Max−Min)×100% to convert the original data into inhibition rate, the IC50 value can be obtained by curve fitting with four parameters (obtained by the mode of log(inhibitor) vs. response—Variable slope in GraphPad Prism).

T2 sequence (P11802 whole entry): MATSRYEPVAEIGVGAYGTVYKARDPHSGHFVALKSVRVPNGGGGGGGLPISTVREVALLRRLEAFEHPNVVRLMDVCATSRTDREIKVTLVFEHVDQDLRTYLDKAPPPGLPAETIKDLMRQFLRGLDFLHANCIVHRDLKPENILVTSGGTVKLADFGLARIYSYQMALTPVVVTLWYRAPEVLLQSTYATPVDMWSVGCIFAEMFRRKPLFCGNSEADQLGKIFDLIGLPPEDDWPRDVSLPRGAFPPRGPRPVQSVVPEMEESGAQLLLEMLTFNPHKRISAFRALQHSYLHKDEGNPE
T2 sequence (P24385 whole entry partner): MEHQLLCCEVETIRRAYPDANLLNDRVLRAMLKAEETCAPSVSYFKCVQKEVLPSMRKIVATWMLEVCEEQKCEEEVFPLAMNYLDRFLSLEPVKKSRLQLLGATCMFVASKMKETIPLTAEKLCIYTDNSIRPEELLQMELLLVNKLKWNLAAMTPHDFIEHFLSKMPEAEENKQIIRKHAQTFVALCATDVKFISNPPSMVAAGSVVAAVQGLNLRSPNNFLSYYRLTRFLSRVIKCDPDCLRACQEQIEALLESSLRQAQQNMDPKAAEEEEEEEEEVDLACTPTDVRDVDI
T1 sequence (Q00534 whole entry): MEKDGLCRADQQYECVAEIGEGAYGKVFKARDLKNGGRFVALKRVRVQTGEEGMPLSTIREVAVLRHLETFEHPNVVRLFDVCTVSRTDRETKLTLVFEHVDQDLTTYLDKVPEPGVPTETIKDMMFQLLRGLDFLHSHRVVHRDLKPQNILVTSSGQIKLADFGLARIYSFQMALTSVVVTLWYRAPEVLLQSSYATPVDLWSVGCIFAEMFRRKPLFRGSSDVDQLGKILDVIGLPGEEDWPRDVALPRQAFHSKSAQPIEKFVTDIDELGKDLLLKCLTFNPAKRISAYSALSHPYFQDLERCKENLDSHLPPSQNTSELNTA
T1 sequence (P24385 whole entry partner): as the sequence (P24385 whole entry partner) above
T4 sequence (P50750 whole entry): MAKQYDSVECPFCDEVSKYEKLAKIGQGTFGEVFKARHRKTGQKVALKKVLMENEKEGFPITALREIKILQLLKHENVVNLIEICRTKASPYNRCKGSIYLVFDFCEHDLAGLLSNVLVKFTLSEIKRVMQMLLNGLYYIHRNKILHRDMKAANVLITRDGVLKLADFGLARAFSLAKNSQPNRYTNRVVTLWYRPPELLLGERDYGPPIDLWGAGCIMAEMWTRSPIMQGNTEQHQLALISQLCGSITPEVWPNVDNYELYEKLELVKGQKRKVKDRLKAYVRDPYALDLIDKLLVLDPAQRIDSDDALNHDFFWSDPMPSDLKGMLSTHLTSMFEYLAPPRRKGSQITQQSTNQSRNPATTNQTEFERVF
T4 sequence (O60563 whole entry partner): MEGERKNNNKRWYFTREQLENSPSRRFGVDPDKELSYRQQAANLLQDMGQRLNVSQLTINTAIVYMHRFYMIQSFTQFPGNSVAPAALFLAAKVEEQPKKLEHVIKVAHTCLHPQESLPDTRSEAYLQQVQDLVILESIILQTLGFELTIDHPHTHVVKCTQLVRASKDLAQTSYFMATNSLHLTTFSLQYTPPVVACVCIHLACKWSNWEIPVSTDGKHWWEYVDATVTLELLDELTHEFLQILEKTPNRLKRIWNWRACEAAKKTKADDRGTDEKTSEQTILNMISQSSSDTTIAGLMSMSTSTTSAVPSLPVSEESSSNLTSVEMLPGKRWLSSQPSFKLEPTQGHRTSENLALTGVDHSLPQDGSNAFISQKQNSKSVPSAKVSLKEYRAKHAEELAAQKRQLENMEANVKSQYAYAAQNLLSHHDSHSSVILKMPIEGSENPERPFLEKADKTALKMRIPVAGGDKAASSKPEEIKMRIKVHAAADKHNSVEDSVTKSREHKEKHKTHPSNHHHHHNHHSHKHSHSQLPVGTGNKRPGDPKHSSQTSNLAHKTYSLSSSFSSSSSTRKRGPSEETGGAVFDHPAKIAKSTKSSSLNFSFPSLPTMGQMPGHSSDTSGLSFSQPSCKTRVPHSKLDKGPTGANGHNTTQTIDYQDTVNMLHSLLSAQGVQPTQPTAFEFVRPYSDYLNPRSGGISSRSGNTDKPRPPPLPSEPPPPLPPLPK

For `CCS(=O)(=O)N1CCC(Nc2ncc3c(n2)N([C@@H]2CCC[C@@]2(C)O)C(=O)CC3)CC1` [Compound 4], the IC50 at CDK6/CyclinD1 is 5.42 nM; on CDK4/CyclinD1 it was 37.5 nM; on CDK2/CyclinA2 it was 1.32 nM.

For `CN1CC(S(=O)(=O)N2CCC(Nc3ncc4c(n3)N([C@@H]3CCC[C@@]3(C)O)C(=O)CC4)CC2)C1` [Compound 10], the IC50 at CDK6/CyclinD1 amounted to 2.65 nM; at CDK4/CyclinD1, 9.09 nM; on CDK2/CyclinA2 it was 1.52 nM.

Turning to `COCCS(=O)(=O)N1CCC(Nc2ncc3c(n2)N([C@@H]2CCC[C@@]2(C)O)C(=O)CC3)CC1` [Compound 6], the IC50 was 5.26 nM at CDK6/CyclinD1, 38.1 nM on CDK4/CyclinD1 and 1.13 nM at CDK2/CyclinA2.

Turning to `CCN1CC(S(=O)(=O)N2CCC(Nc3ncc4c(n3)N([C@@H]3CCC[C@@]3(C)O)C(=O)CC4)CC2)C1` [Compound 8], the IC50 is 3.4 nM on CDK6/CyclinD1, 14.9 nM on CDK4/CyclinD1 and 1.78 nM on CDK2/CyclinA2.

As for `C[C@@]1(O)CCC[C@H]1N1C(=O)CCc2cnc(NC3CCN(S(=O)(=O)C4CC4)CC3)nc21` [Compound 3], the IC50 at CDK6/CyclinD1 stood at 4.74 nM; at CDK4/CyclinD1, 23.6 nM; on CDK2/CyclinA2, 1.18 nM.

With `C[C@@]1(O)CCC[C@H]1N1C(=O)CCc2cnc(NC3CCN(S(=O)(=O)C4CNC4)CC3)nc21` [Compound 7], the IC50 is 1.52 nM at CDK6/CyclinD1, 3.99 nM on CDK4/CyclinD1 and 1.4 nM on CDK2/CyclinA2.

Consider `CC(C)N1CC(S(=O)(=O)N2CCC(Nc3ncc4c(n3)N([C@@H]3CCC[C@@]3(C)O)C(=O)CC4)CC2)C1` [Compound 9], for which the IC50 on CDK6/CyclinD1 was 3.69 nM; at CDK4/CyclinD1 it was 15.7 nM; at CDK2/CyclinA2 it was 1.4 nM.

For the molecule `CC(C)S(=O)(=O)N1CCC(Nc2ncc3c(n2)N([C@@H]2CCC[C@@]2(C)O)C(=O)CC3)CC1` [Compound 5], the IC50 on CDK6/CyclinD1 was found to be 8.95 nM; on CDK4/CyclinD1 it was 46.9 nM; on CDK2/CyclinA2, 1.74 nM.

Regarding `C[C@@]1(O)CCC[C@H]1n1c(=O)c(C(F)F)cc2cnc(NC3CCN(S(C)(=O)=O)CC3)nc21` [PF-06873600, reference compound], the IC50 stood at 140 nM in the assay with HCT116 cells, 458 nM in the assay on HCC1806 cells, 17.2 nM on CDK9/CyclinT1 and 120 nM in the assay with MDA-MB-468 cells.
